Laboratory results: PubChem BioAssay AID1259407 (Chemical Carcinogenesis Research Information System (CCRIS), 2018)
The source made the active and inactive calls. No rule for the calls is given here.

System: CCRIS mutagenicity, Ames/micronucleus/aberration tests
Test: CCRIS mutagenicity studies
[1] = Test System: AMES SALMONELLA TYPHIMURIUM, Strain/Indicator: TA98, Metabolic Activation: HAMSTER, LIVER, S-9, AROCLOR 1254 (10%), Method: PREINCUBATION
[2] = Test System: AMES SALMONELLA TYPHIMURIUM, Strain/Indicator: TA98, Metabolic Activation: NONE, Method: PREINCUBATION
[3] = Test System: AMES SALMONELLA TYPHIMURIUM, Strain/Indicator: TA98, Metabolic Activation: RAT, LIVER, S-9, AROCLOR 1254 (10%), Method: PREINCUBATION
[4] = Test System: AMES SALMONELLA TYPHIMURIUM, Strain/Indicator: TA100, Metabolic Activation: HAMSTER, LIVER, S-9, AROCLOR 1254 (10%), Method: PREINCUBATION
[5] = Test System: AMES SALMONELLA TYPHIMURIUM, Strain/Indicator: TA100, Metabolic Activation: NONE, Method: PREINCUBATION
[6] = Test System: AMES SALMONELLA TYPHIMURIUM, Strain/Indicator: TA100, Metabolic Activation: RAT, LIVER, S-9, AROCLOR 1254 (10%), Method: PREINCUBATION
[7] = Test System: AMES SALMONELLA TYPHIMURIUM, Strain/Indicator: TA1535, Metabolic Activation: HAMSTER, LIVER, S-9, AROCLOR 1254 (10%), Method: PREINCUBATION
[8] = Test System: AMES SALMONELLA TYPHIMURIUM, Strain/Indicator: TA1535, Metabolic Activation: NONE, Method: PREINCUBATION
[9] = Test System: AMES SALMONELLA TYPHIMURIUM, Strain/Indicator: TA1535, Metabolic Activation: RAT, LIVER, S-9, AROCLOR 1254 (10%), Method: PREINCUBATION
[10] = Test System: AMES SALMONELLA TYPHIMURIUM, Strain/Indicator: TA1537, Metabolic Activation: HAMSTER, LIVER, S-9, AROCLOR 1254 (10%), Method: PREINCUBATION
[11] = Test System: AMES SALMONELLA TYPHIMURIUM, Strain/Indicator: TA1537, Metabolic Activation: NONE, Method: PREINCUBATION
[12] = Test System: AMES SALMONELLA TYPHIMURIUM, Strain/Indicator: TA1537, Metabolic Activation: RAT, LIVER, S-9, AROCLOR 1254 (10%), Method: PREINCUBATION
[13] = Test System: AMES SALMONELLA TYPHIMURIUM, Strain/Indicator: TA102, Metabolic Activation: NONE, Method: PREINCUBATION
[14] = Test System: AMES SALMONELLA TYPHIMURIUM, Strain/Indicator: TA100, Metabolic Activation: NONE, Method: STANDARD PLATE

Compound: CCCCOC(=O)c1ccccc1N
- mutagenic call [1]: inactive; negative
- mutagenic call [2]: inactive; negative
- mutagenic call [3]: inactive; negative
- mutagenic call [4]: inactive; negative
- mutagenic call [5]: inactive; negative
- mutagenic call [6]: inactive; negative
- mutagenic call [7]: inactive; negative
- mutagenic call [8]: inactive; negative
- mutagenic call [9]: inactive; negative
- mutagenic call [10]: inactive; negative
- mutagenic call [11]: inactive; negative
- mutagenic call [12]: inactive; negative

Compound: O=Cc1ccc(Cl)cc1
- mutagenic call [2]: inactive; negative
- mutagenic call (Test System: AMES SALMONELLA TYPHIMURIUM, Strain/Indicator: TA98, Metabolic Activation: RAT LIVER S-9, PCB, Method: PREINCUBATION): inactive; negative
- mutagenic call [5]: inactive; negative
- mutagenic call (Test System: AMES SALMONELLA TYPHIMURIUM, Strain/Indicator: TA100, Metabolic Activation: RAT LIVER S-9, AROCLOR 1254, Method: PREINCUBATION): inactive; negative
- mutagenic call (Test System: AMES SALMONELLA TYPHIMURIUM, Strain/Indicator: TA100, Metabolic Activation: RAT LIVER S-9, PCB, Method: PREINCUBATION): inactive; negative
- mutagenic call [13]: inactive; negative
- mutagenic call (Test System: AMES SALMONELLA TYPHIMURIUM, Strain/Indicator: TA102, Metabolic Activation: RAT LIVER S-9, AROCLOR 1254, Method: PREINCUBATION): inactive; negative
- mutagenic call (Test System: AMES SALMONELLA TYPHIMURIUM, Strain/Indicator: TA104, Metabolic Activation: NONE, Method: PREINCUBATION): inactive; negative
- mutagenic call (Test System: AMES SALMONELLA TYPHIMURIUM, Strain/Indicator: TA104, Metabolic Activation: RAT LIVER S-9, AROCLOR 1254, Method: PREINCUBATION): inactive; negative
- mutagenic call (Test System: AMES SALMONELLA TYPHIMURIUM, Strain/Indicator: TA104, Metabolic Activation: RAT LIVER S-9, PCB, Method: PREINCUBATION): inactive; negative
- mutagenic call (Test System: E. COLI, Strain/Indicator: WP2 UVRA, Metabolic Activation: NONE, Method: PREINCUBATION): inactive; negative
- mutagenic call (Test System: E. COLI, Strain/Indicator: WP2 UVRA, Metabolic Activation: RAT LIVER S-9, PCB, Method: PREINCUBATION): inactive; negative
- mutagenic call (Test System: MOUSE LYMPHOMA, Strain/Indicator: L5178Y (TK+/TK-), Metabolic Activation: NONE, Method: SUSPENSION/PLATE): inactive; positive. reevaluation of results: negative
- mutagenic call (Test System: Mouse lymphoma, Strain/Indicator: L5178Y (tk+/tk-), Metabolic Activation: Rat, Liver, S-9, Aroclor 1254, Method: Suspension/plate): inactive; negative

Compound: O=C(O)c1ccccc1-c1c2ccc(=O)cc-2oc2cc(O)ccc12
- mutagenic call (End Point: IN VITRO CHROMOSOMAL ABERRATIONS, Test System: CHO-LB CELLS, Metabolic Activation: NONE): inactive; negative
- mutagenic call (End Point: IN VITRO CHROMOSOMAL ABERRATIONS, Test System: CHO-LB CELLS, Metabolic Activation: RAT, LIVER, S-9, AROCLOR 1254): inactive; negative
- mutagenic call [1]: inactive; negative
- mutagenic call [2]: inactive; negative
- mutagenic call [3]: inactive; negative
- mutagenic call [4]: inactive; negative
- mutagenic call [5]: inactive; negative
- mutagenic call [6]: inactive; negative
- mutagenic call [7]: inactive; negative
- mutagenic call [8]: inactive; negative
- mutagenic call [9]: inactive; negative
- mutagenic call [10]: inactive; negative
- mutagenic call [11]: inactive; negative
- mutagenic call [12]: inactive; negative

Compound: C[As](O)O
- mutagenic call (End Point: In vitro micronucleus, Test System: Human peripheral lymphocytes, Metabolic Activation: None): active; positive in all subjects only at highest dose
- mutagenic call (Test System: Mouse lymphoma, Strain/Indicator: L5178Y (TK+/TK-), Metabolic Activation: None, Method: Microwell): active; positive

Compound: O=C1C=C(c2nnc(NC(=O)c3ccccc3)s2)C(=O)C=C1Nc1ccc([N+](=O)[O-])cc1
- mutagenic call [14]: active; positive

Compound: O=C(NCc1ccccc1)C1CO1 (centres undefined)
- mutagenic call (Test System: AMES SALMONELLA TYPHIMURIUM, Strain/Indicator: TA100, Metabolic Activation: MOUSE, LIVER, S-9, AROCLOR 1254, Method: STANDARD PLATE): active; positive
- mutagenic call [14]: active; positive

Compound: N[C@@H](CSc1c(Cl)c(Cl)c(Cl)c(Cl)c1Cl)C(=O)O
- mutagenic call [2]: inactive; negative
- mutagenic call (Test System: AMES SALMONELLA TYPHIMURIUM, Strain/Indicator: TA98, Metabolic Activation: RAT, LIVER OR KIDNEY, MICROSOMES, Method: PREINCUBATION): inactive; negative
- mutagenic call [5]: inactive; negative
- mutagenic call (Test System: AMES SALMONELLA TYPHIMURIUM, Strain/Indicator: TA100, Metabolic Activation: RAT, LIVER OR KIDNEY, MICROSOMES, Method: PREINCUBATION): inactive; negative
- mutagenic call [13]: inactive; negative
- mutagenic call (Test System: AMES SALMONELLA TYPHIMURIUM, Strain/Indicator: TA102, Metabolic Activation: RAT, LIVER OR KIDNEY, MICROSOMES, Method: PREINCUBATION): inactive; negative
- mutagenic call (Test System: AMES SALMONELLA TYPHIMURIUM, Strain/Indicator: TA2638, Metabolic Activation: NONE, Method: PREINCUBATION): inactive; negative
- mutagenic call (Test System: AMES SALMONELLA TYPHIMURIUM, Strain/Indicator: TA2638, Metabolic Activation: RAT, LIVER OR KIDNEY, MICROSOMES, Method: PREINCUBATION): inactive; negative

Compound: COc1ccc(CN(CCN(C)C)c2ncccn2)cc1
- mutagenic call [1]: inactive; negative
- mutagenic call [2]: inactive; negative
- mutagenic call [3]: inactive; negative
- mutagenic call [4]: inactive; negative
- mutagenic call [5]: inactive; negative
- mutagenic call [6]: inactive; negative
- mutagenic call [7]: inactive; negative
- mutagenic call [8]: inactive; negative
- mutagenic call [9]: inactive; negative
- mutagenic call [10]: inactive; negative
- mutagenic call [11]: inactive; negative
- mutagenic call [12]: inactive; negative

Compound: C[C@H](CCC(=O)O)[C@H]1CC[C@H]2[C@@H]3C(=O)C[C@@H]4C[C@H](O)CC[C@]4(C)[C@H]3CC[C@]12C
- mutagenic call (Test System: AMES SALMONELLA TYPHIMURIUM, Strain/Indicator: TA98, Metabolic Activation: NONE, Method: FLUCTUATION TEST): inactive; negative
- mutagenic call [2]: inactive; negative
- mutagenic call (Test System: AMES SALMONELLA TYPHIMURIUM, Strain/Indicator: TA98, Metabolic Activation: RAT, LIVER, S-9, PCB, Method: PREINCUBATION): inactive; negative
- mutagenic call (Test System: AMES SALMONELLA TYPHIMURIUM, Strain/Indicator: TA100, Metabolic Activation: NONE, Method: FLUCTUATION TEST): inactive; negative
